# Experimental data: ChEMBL document CHEMBL4507270 (2021)
# Tests used:
# [1] = target: Maternal embryonic leucine zipper kinase (Homo sapiens) (UniProt Q14680)
# [2] = target: Sodium-dependent serotonin transporter (Homo sapiens) (UniProt P31645); settings: Compound concentration 10.0 uM
# [3] = tested on: Epidermal growth factor receptor (Homo sapiens), P00533 [L858R,T790M]
# [4] = target: Serine/threonine-protein kinase Chk1 (Homo sapiens) (UniProt O14757)
# [5] = target: Mitogen-activated protein kinase kinase kinase 7 (Homo sapiens) (UniProt O43318)
# [6] = target: Tyrosine-protein kinase Lck (Homo sapiens) (UniProt P06239)
# [7] = target: Glycogen synthase kinase-3 alpha (Homo sapiens) (UniProt P49840)
# [8] = target: Cyclin-dependent kinase 5 (Homo sapiens) (UniProt Q00535)
# Chain of Cyclin-dependent kinase 5 (Homo sapiens) (Q00535 whole entry, looked up): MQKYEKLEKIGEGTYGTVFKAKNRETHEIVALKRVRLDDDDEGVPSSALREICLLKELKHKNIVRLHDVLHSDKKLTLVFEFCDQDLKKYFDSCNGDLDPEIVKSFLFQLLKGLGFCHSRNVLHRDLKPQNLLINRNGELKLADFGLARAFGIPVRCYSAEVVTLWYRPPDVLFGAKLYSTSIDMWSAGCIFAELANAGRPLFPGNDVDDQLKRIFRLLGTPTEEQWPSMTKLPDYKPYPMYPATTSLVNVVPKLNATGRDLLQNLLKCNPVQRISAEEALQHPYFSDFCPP
# [9] = target: Vascular endothelial growth factor receptor 3 (Homo sapiens, UniProt P35916)
# [10] = target: Ephrin type-A receptor 6 (Homo sapiens) (UniProt Q9UF33)
# [11] = target: Phosphatidylinositol 4,5-bisphosphate 3-kinase catalytic subunit gamma isoform (Homo sapiens) (UniProt P48736)
# [12] = target: 5-hydroxytryptamine receptor 7 (Homo sapiens) (UniProt P34969); settings: Compound concentration 10.0 uM
# [13] = target: Receptor-interacting serine/threonine-protein kinase 2 (Homo sapiens) (UniProt O43353)
# Chain of Receptor-interacting serine/threonine-protein kinase 2 (Homo sapiens) (O43353 whole entry): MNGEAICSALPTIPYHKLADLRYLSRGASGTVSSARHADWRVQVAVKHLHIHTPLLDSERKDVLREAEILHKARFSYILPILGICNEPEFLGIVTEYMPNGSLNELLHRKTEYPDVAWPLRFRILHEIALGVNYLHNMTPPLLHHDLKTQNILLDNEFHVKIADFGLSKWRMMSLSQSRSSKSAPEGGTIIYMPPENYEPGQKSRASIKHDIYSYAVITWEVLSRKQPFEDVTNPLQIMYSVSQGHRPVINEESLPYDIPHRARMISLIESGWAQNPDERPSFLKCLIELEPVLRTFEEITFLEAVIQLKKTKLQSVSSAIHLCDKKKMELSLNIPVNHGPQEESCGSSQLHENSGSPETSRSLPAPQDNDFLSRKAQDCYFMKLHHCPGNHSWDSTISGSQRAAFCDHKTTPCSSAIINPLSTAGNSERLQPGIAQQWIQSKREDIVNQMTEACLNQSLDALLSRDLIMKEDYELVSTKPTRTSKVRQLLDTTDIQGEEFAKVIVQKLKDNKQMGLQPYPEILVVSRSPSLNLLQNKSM
# [14] = target: Serine/threonine-protein kinase Nek1 (Homo sapiens) (UniProt Q96PY6)
# [15] = target: Tyrosine-protein kinase FRK (Homo sapiens) (UniProt P42685)
# [16] = target: Mitogen-activated protein kinase 3 (Homo sapiens) (UniProt P27361)
# [17] = target: Serine/threonine-protein kinase WNK1 (Homo sapiens) (UniProt Q9H4A3)
# [18] = target: D(4) dopamine receptor (Homo sapiens) (UniProt P21917); settings: Compound concentration 10.0 uM
# [19] = target: Mitogen-activated protein kinase kinase kinase 10 (Homo sapiens) (UniProt Q02779)
# [20] = target: Serine/threonine-protein kinase tousled-like 1 (Homo sapiens) (UniProt Q9UKI8)
# [21] = target: Calcium/calmodulin-dependent protein kinase type II subunit gamma (Homo sapiens) (UniProt Q13555)
# [22] = tested on: Phosphatidylinositol 4,5-bisphosphate 3-kinase catalytic subunit alpha isoform (Homo sapiens), P42336 [M1043I]
# [23] = target: SRSF protein kinase 1 (Homo sapiens) (UniProt Q96SB4)
# [24] = tested on: Epidermal growth factor receptor (Homo sapiens), P00533 [G719S]
# [25] = target: Tyrosine-protein kinase ZAP-70 (Homo sapiens) (UniProt P43403)
# [26] = target: Serine/threonine-protein kinase MARK2 (Homo sapiens) (UniProt Q7KZI7)
# [27] = target: Serine/threonine-protein kinase PLK3 (Homo sapiens) (UniProt Q9H4B4)
# [28] = target: Cytoplasmic tyrosine-protein kinase BMX (Homo sapiens) (UniProt P51813)
# Chain of Cytoplasmic tyrosine-protein kinase BMX (Homo sapiens) (P51813 whole entry): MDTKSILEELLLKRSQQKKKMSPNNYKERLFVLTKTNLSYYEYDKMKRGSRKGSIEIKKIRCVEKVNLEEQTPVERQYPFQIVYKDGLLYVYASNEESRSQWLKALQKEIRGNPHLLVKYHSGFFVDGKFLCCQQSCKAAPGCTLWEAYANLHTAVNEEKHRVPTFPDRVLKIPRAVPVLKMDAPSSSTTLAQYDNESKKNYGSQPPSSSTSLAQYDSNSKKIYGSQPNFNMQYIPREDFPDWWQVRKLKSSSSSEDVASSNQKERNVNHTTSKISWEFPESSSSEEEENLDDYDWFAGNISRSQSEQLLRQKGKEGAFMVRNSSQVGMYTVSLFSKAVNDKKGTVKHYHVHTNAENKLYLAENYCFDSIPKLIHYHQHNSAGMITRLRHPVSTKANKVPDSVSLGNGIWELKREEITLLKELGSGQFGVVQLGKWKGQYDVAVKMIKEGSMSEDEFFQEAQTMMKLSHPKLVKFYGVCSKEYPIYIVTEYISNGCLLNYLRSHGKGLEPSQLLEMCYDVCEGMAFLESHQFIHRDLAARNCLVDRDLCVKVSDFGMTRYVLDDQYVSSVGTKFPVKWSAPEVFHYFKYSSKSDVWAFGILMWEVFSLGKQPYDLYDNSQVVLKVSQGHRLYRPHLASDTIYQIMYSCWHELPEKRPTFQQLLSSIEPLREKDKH
# [29] = target: Tyrosine-protein kinase ABL2 (Homo sapiens) (UniProt P42684)
# Chain of Tyrosine-protein kinase ABL2 (Homo sapiens) (P42684 whole entry): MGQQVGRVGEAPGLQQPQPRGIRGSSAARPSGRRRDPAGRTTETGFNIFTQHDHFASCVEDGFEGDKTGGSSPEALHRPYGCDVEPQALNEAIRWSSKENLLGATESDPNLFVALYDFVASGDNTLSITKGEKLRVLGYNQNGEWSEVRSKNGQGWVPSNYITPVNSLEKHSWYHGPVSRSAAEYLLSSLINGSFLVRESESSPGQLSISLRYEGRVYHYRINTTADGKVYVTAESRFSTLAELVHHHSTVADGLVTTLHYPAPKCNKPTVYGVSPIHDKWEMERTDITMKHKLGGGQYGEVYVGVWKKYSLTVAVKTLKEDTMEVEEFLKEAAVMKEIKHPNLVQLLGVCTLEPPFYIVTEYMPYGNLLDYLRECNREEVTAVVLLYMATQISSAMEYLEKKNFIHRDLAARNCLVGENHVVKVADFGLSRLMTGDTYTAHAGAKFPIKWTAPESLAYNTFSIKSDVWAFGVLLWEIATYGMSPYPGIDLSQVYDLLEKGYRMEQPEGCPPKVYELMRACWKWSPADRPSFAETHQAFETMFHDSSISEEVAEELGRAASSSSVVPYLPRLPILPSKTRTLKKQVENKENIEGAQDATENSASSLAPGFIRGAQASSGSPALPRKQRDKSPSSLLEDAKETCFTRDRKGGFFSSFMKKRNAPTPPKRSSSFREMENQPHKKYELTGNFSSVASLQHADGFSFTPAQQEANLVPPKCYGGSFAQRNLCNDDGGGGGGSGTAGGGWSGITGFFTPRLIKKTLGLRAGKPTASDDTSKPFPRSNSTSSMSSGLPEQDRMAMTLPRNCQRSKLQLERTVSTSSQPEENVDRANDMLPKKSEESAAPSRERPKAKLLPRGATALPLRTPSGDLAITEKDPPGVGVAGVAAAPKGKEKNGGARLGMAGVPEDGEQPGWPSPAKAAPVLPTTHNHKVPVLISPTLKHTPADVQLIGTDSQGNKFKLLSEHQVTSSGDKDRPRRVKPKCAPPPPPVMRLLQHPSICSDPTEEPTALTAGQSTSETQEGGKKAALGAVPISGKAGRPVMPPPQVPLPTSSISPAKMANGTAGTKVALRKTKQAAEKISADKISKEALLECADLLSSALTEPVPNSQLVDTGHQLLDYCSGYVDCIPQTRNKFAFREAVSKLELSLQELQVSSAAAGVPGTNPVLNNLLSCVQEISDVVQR
# [30] = tested on: Epidermal growth factor receptor (Homo sapiens), P00533 [L858R]
# [31] = target: Serine/threonine-protein kinase WNK4 (Homo sapiens) (UniProt Q96J92)
# [32] = tested on: Tyrosine-protein kinase ABL1 (Homo sapiens), P00519 [F317L]
# [33] = tested on: Receptor-type tyrosine-protein kinase FLT3 (Homo sapiens), P36888 [K663Q]
# [34] = tested on: Tyrosine-protein kinase ABL1 (Homo sapiens), P00519 [F317I]
# [35] = target: Mitogen-activated protein kinase 4 (Homo sapiens) (UniProt P31152)
# [36] = target: Beta-adrenergic receptor kinase 1 (Homo sapiens) (UniProt P25098)
# Chain of Beta-adrenergic receptor kinase 1 (Homo sapiens) (P25098 whole entry): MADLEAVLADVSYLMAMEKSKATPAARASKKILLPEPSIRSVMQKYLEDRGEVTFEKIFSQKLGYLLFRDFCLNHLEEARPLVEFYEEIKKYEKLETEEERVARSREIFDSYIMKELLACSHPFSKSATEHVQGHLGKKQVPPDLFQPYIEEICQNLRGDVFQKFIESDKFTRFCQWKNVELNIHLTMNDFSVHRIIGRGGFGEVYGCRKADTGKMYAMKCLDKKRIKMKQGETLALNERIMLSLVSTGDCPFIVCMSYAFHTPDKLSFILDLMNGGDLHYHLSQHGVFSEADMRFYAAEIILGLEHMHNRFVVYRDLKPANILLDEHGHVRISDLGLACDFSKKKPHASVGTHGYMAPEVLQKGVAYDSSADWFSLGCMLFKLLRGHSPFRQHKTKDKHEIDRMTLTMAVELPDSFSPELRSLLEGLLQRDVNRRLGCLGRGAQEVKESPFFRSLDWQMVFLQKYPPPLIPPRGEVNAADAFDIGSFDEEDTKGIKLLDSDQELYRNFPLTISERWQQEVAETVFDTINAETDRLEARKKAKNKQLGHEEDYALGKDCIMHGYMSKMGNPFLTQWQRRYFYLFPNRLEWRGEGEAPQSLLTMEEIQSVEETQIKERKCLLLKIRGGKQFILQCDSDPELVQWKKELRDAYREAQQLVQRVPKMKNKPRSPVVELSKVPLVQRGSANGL
# [37] = target: Vascular endothelial growth factor receptor 2 (Homo sapiens, UniProt P35968)
# [38] = target: Uncharacterized serine/threonine-protein kinase SBK3 (Homo sapiens) (UniProt P0C264)
# Chain of Uncharacterized serine/threonine-protein kinase SBK3 (Homo sapiens) (P0C264 whole entry): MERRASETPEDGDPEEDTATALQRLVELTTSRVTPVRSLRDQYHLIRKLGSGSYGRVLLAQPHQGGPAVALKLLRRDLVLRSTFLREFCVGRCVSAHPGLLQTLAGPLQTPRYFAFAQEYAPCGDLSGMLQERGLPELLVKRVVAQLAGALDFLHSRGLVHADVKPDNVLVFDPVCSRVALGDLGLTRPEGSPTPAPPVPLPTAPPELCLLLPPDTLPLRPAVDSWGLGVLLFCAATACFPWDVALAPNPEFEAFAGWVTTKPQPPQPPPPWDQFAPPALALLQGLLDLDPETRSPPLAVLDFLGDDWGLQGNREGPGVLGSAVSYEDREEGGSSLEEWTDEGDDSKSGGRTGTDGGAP
# [39] = target: Cyclin-dependent kinase 17 (Homo sapiens) (UniProt Q00537)
# [40] = target: Serine/threonine-protein kinase PLK1 (Homo sapiens) (UniProt P53350)
# Chain of Serine/threonine-protein kinase PLK1 (Homo sapiens) (P53350 whole entry): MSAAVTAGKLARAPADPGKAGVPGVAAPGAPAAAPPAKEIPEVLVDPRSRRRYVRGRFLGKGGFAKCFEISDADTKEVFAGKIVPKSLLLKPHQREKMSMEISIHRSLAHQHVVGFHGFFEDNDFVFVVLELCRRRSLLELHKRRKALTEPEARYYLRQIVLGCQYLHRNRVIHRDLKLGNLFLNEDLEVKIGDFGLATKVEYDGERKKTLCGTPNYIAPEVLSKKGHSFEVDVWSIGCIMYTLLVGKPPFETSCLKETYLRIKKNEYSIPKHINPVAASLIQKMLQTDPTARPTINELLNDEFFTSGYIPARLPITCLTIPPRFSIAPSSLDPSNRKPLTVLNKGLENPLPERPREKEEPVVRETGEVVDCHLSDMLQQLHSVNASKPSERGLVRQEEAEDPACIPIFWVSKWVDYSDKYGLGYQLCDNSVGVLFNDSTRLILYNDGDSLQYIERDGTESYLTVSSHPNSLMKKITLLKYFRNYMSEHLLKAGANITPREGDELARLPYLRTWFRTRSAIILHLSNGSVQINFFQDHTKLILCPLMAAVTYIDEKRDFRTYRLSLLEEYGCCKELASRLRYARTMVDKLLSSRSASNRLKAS
# [41] = target: Cyclin-dependent kinase 4 (Homo sapiens) (UniProt P11802)
# [42] = target: Serine/threonine-protein kinase/endoribonuclease IRE1 (Homo sapiens) (UniProt O75460)
# [43] = target: TGF-beta receptor type-1 (Homo sapiens) (UniProt P36897)
# [44] = target: Tyrosine-protein kinase Mer (Homo sapiens) (UniProt Q12866)
# [45] = target: Mitogen-activated protein kinase 10 (Homo sapiens) (UniProt P53779)
# [46] = Compound concentration 1000.0 nM
# [47] = Compound concentration 100.0 nM
# Chain of Sodium-dependent serotonin transporter (Homo sapiens) (P31645 whole entry, looked up): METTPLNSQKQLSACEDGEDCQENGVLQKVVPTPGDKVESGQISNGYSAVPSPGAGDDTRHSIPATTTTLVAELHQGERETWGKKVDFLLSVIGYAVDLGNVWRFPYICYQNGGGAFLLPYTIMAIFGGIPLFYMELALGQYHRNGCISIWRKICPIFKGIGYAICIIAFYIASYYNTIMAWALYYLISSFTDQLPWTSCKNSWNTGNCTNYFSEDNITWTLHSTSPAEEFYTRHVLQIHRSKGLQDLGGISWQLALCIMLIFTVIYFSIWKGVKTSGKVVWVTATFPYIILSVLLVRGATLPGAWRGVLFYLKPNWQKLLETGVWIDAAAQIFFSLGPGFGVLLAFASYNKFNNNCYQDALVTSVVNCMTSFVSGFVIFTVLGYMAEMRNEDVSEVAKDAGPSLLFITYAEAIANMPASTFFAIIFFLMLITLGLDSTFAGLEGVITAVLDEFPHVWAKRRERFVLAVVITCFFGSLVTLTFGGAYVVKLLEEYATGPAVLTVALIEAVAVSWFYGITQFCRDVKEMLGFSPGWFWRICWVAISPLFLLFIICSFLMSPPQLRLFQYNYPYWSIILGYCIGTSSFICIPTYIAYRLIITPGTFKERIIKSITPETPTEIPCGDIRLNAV
structure (smiles),measurement,setting,value
Cc1cc(NC(=O)c2cccc(S(F)(F)(F)(F)F)c2)cc(-n2ccn3nc(-c4cccnc4)cc23)c1 [BAY-309],residual activity,[1]; [46],100%
same,inhibition,[2],19.2%
same,residual activity,[3]; [46],97.6%
same,residual activity,[4]; [46],72%
same,residual activity,[5]; [46],100%
same,residual activity,[6]; [46],96.6%
same,residual activity,[7]; [46],100%
same,residual activity,[8]; [46],100%
same,residual activity,[9]; [46],82.3%
same,residual activity,[10]; [46],100%
same,residual activity,[11]; [46],100%
same,inhibition,[12],6.71%
same,residual activity,[13]; [46],88.6%
same,residual activity,[14]; [46],100%
same,residual activity,[15]; [46],100%
same,residual activity,[16]; [46],86.8%
same,residual activity,[17]; [46],100%
same,inhibition,[18],12.4%
same,residual activity,[19]; [46],100%
same,residual activity,[20]; [46],100%
same,residual activity,[21]; [46],100%
same,residual activity,[22]; [46],30.3%
same,residual activity,[23]; [46],100%
same,residual activity,[24]; [46],100%
same,residual activity,[25]; [46],100%
same,residual activity,[26]; [46],100%
same,residual activity,[27]; [46],69.4%
same,residual activity,[28]; [46],100%
same,residual activity,[29]; [46],100%
same,residual activity,[30]; [46],100%
same,residual activity,[31]; [46],100%
same,residual activity,[32]; [46],72.9%
same,residual activity,[33]; [46],100%
same,residual activity,[34]; [46],100%
same,residual activity,[35]; [46],50.4%
same,residual activity,[36]; [46],74.5%
same,residual activity,[37]; [46],68.3%
same,residual activity,[38]; [46],100%
same,residual activity,[39]; [46],83.8%
same,residual activity,[40]; [46],95.3%
same,residual activity,[41]; [46],100%
same,residual activity,[42]; [46],99.2%
same,residual activity,[43]; [46],74.3%
same,residual activity,[44]; [46],100%
same,residual activity,[45]; [46],64.9%
Cc1cc(C)c(-n2ccn3nc(-c4cccnc4)cc23)cc1NC(=O)c1cc(C#N)cc(S(F)(F)(F)(F)F)c1 [BAY-826],residual activity,[1]; [47],100%
same,inhibition,[2],11.1%
same,residual activity,[3]; [47],100%
same,residual activity,[4]; [47],86%
same,residual activity,[5]; [47],66.2%
same,residual activity,[6]; [47],41.6%
same,residual activity,[7]; [47],100%
same,residual activity,[8]; [47],95.6%
same,residual activity,[9]; [47],77.6%
same,residual activity,[10]; [47],82.6%
same,residual activity,[11]; [47],98.5%
same,inhibition,[12],-3.4%
same,residual activity,[13]; [47],84.5%
same,residual activity,[14]; [47],100%
same,residual activity,[15]; [47],59.1%
same,residual activity,[16]; [47],95.2%
same,residual activity,[17]; [47],97.3%
same,inhibition,[18],16.4%
same,residual activity,[19]; [47],100%
same,residual activity,[20]; [47],89.1%
same,residual activity,[21]; [47],93.4%
same,residual activity,[22]; [47],100%
same,residual activity,[23]; [47],67.4%
same,residual activity,[24]; [47],94.8%
same,residual activity,[25]; [47],79.9%
same,residual activity,[26]; [47],100%
same,residual activity,[27]; [47],81.8%
same,residual activity,[28]; [47],76.7%
same,residual activity,[29]; [47],67.8%
same,residual activity,[30]; [47],83.9%
same,residual activity,[31]; [47],100%
same,residual activity,[32]; [47],63.3%
same,residual activity,[33]; [47],100%
same,residual activity,[34]; [47],65.8%
same,residual activity,[35]; [47],86.3%
same,residual activity,[36]; [47],91.8%
same,residual activity,[37]; [47],76.2%
same,residual activity,[38]; [47],100%
same,residual activity,[39]; [47],99.3%
same,residual activity,[40]; [47],100%
same,residual activity,[41]; [47],86.2%
same,residual activity,[42]; [47],68.3%
same,residual activity,[43]; [47],98.2%
same,residual activity,[44]; [47],83.6%
same,residual activity,[45]; [47],100%
